Laboratory results taken from PMC12118597 (Science Advances, 2025).
Values joined by “and” are separate entries in the source; they are usually repeats but may differ in a detail not shown here. Equal values may be shown once. Read-outs that look alike come from different tables or passages of the source.

Target: SARS-CoV-2 NSP3 macrodomain (Mac1) (Severe acute respiratory syndrome coronavirus 2, UniProt P0DTD1)
Format: binding
Conditions: for 1-BDC: PanDDA background density correction factor; for Total number of conformations: ligand conformations modeled in the crystal structure; for 2*(1-BDC) (%): occupancy estimate from PanDDA; for Refined ligand occupancy (%): refined crystallographic occupancy
[1] = TRUE = crystal structure with ligand obtained
[2] = crystal soak 5 mM, P43 crystal form
[3] = site of Mac1 occupied in the X-ray crystal structure
[4] = crystal soak 10 mM, P43 crystal form
[5] = site of ligand in X-ray crystal structure
[6] = ligand-bound crystal structure obtained (TRUE)
[7] = site occupied in X-ray crystal structure

SMILES | Occupancy difference (refined_occupancy - 2*(1-BDC)) | 1-BDC | X-ray crystal structure [1] | Total number of conformations | 2*(1-BDC) (%) | Refined ligand occupancy (%) | PanDDA run, overall: Hit [4] | PanDDA run, DMSO background map: 1-BDC (crystal soak 10 mM) | PanDDA run, DMSO background map: Hit (crystal soak 10 mM) | Binding site [5] | PanDDA run, overall: Modeled [4] | other results
CCC1(O)CCN(c2ncnc3[nH]ccc23)C1 (centres unmarked) [AVI-612] | 0 | 0.17 | TRUE | 1 | 34% | 34% |  |  |  |  |  | PanDDA run, overall: Hit [2]: TRUE; PanDDA run, DMSO background map: 1-BDC (crystal soak 5 mM): 0.17; PanDDA run, DMSO background map: Hit (crystal soak 5 mM): TRUE; Binding site [3]: Adenosine
CN(C)C[C@@]1(O)CCCN(c2ncnc3[nH]ccc23)C1 [AVI-614] |  |  |  |  |  |  | TRUE | 0.17 | TRUE |  |  | PanDDA run, overall: Modeling comment (crystal soak 10 mM): Weak density, not modeled
O[C@@H]1CN(c2ncnc3[nH]ccc23)C[C@H]1F [AVI-616] | 0 | 0.2 | TRUE | 1 | 40% | 40% | TRUE | 0.2 | TRUE |  |  | Binding site [3]: Adenosine
O[C@@H]1COC[C@H]1Nc1ncnc2[nH]ccc12 [AVI-1443] |  |  |  |  |  |  |  |  |  |  |  | PanDDA run, overall: Modeling comment (crystal soak 5 mM): Weak density, not modeled; PanDDA run, overall: Hit [2]: TRUE; PanDDA run, DMSO background map: 1-BDC (crystal soak 5 mM): 0.05 and 0.04; PanDDA run, DMSO background map: Hit (crystal soak 5 mM): TRUE
O[C@H]1COC[C@@H]1Nc1ncnc2[nH]ccc12 [AVI-1444, (3R,4S)-4-((7H-pyrrolo[2,3-d]pyrimidin-4-yl)amino)tetrahydrofuran-3-ol] | 0 | 0.08 | TRUE | 1 | 16% | 16% | TRUE | 0.08 and 0.11 | TRUE | Adenosine |  | 
O=C(O)C(F)(F)F.OC1c2ccccc2CC1Nc1ncnc2[nH]ccc12 (centres unmarked) [AVI-3634] |  |  |  |  |  |  |  |  |  |  |  | PanDDA run, overall: Modeling comment (crystal soak 10 mM): TFA only
CCC(Nc1ncnc2[nH]ccc12)C(C)O (centres unmarked) [AVI-3635] | 0 | 0.14 | TRUE | 2 | 28% | 28% | TRUE | 0.23 and 0.14 | TRUE | Adenosine | TRUE | 
OCC(CC(F)(F)F)Nc1ncnc2[nH]ccc12 (centres unmarked) [AVI-3637] | 0 | 0.23 | TRUE | 1 | 46% | 46% | TRUE | 0.23 | TRUE | Adenosine |  | 
OCC(Nc1ncnc2[nH]ccc12)C1CCC1 (centres unmarked) [AVI-3638] | 0 | 0.13 | TRUE | 1 | 26% | 26% | TRUE | 0.13 | TRUE | Adenosine | TRUE | 
O=C(O)C(F)(F)F.O[C@H]1CCC[C@@H]1Nc1ncnc2[nH]ccc12 [AVI-3639] | 0 | 0.11 | TRUE | 1 | 22% | 22% | TRUE | 0.11 | TRUE | Adenosine | TRUE | 
OCC(CC1CCC1)Nc1ncnc2[nH]ccc12 (centres unmarked) [AVI-3641] | 0 | 0.18 | TRUE | 1 | 36% | 36% | TRUE | 0.18 | TRUE | Adenosine | TRUE | 
OCC(CC(O)c1ccccc1)Nc1ncnc2[nH]ccc12 (centres unmarked) [AVI-3642] | 0 | 0.17 | TRUE | 1 | 34% | 34% | TRUE | 0.17 | TRUE | Adenosine | TRUE | 
CCCC(CO)Nc1ncnc2[nH]ccc12 (centres unmarked) [AVI-3643] | 0 | 0.16 | TRUE | 1 | 32% | 32% | TRUE | 0.16 | TRUE | Adenosine | TRUE | 
C#CCC(CO)Nc1ncnc2[nH]ccc12 (centres unmarked) [AVI-3644] | 0 | 0.18 | TRUE | 1 | 36% | 36% | TRUE | 0.18 | TRUE | Adenosine | TRUE | 
O=C(O)C(F)(F)F.OCC(Nc1ncnc2[nH]ccc12)C1CCCO1 (centres unmarked) [AVI-3645] |  |  |  |  |  |  | TRUE | 0.22 | TRUE |  |  | PanDDA run, overall: Modeling comment [4]: Weak density, not modeled; PanDDA run, TFA/DMSO background map: 1-BDC (crystal soak 10 mM): 0.12; PanDDA run, TFA/DMSO background map: Hit (crystal soak 10 mM): TRUE
OC1CCCN(c2ncnc3[nH]ccc23)C1 (centres unmarked) [AVI-3646] | 0 | 0.22 | TRUE | 1 | 44% | 44% | TRUE | 0.22 | TRUE |  | TRUE | Binding site [3]: Adenosine
CC(C)(C)CC(CO)Nc1ncnc2[nH]ccc12 (centres unmarked) [AVI-3648] | 0 | 0.13 | TRUE | 1 | 26% | 26% | TRUE | 0.13 | TRUE | Adenosine | TRUE | 
OCC(Nc1ncnc2[nH]ccc12)C1CCCC1 (centres unmarked) [AVI-3649] | 0 | 0.16 | TRUE | 1 | 32% | 32% | TRUE | 0.16 | TRUE | Adenosine | TRUE | 
OCC(Cc1c[nH]c2ccccc12)Nc1ncnc2[nH]ccc12 (centres unmarked) [AVI-3650] | 0 | 0.15 | TRUE | 2 | 30% | 30% | TRUE | 0.15 | TRUE | Adenosine | TRUE | 
OC(c1ccccc1)C1CCCN1c1ncnc2[nH]ccc12 (centres unmarked) [AVI-3652] | 0 | 0.22 |  | 1 | 44% | 44% | TRUE | 0.22 | TRUE |  | TRUE | X-ray crystal structure [6]: TRUE; Binding site [7]: Adenosine
O=C(O)C(F)(F)F.OC[C@@H](CCc1ccccc1)Nc1ncnc2[nH]ccc12 [AVI-3654] |  |  |  |  |  |  | TRUE | 0.14 | TRUE |  |  | PanDDA run, overall: Modeling comment [4]: Weak density for phenyl, not modeled; PanDDA run, TFA/DMSO background map: 1-BDC (crystal soak 10 mM): 0.07; PanDDA run, TFA/DMSO background map: Hit (crystal soak 10 mM): TRUE
CC1CCN(c2ncnc3[nH]ccc23)C1CO (centres unmarked) [AVI-3655] | 0 | 0.21 |  | 1 | 42% | 42% | TRUE | 0.21 | TRUE |  | TRUE | X-ray crystal structure [6]: TRUE; Binding site [7]: Adenosine
CO[C@@H]1C[C@H](CO)N(c2ncnc3[nH]ccc23)C1 [AVI-3656] | 0 | 0.26 |  | 1 | 52% | 52% | TRUE | 0.26 | TRUE |  | TRUE | X-ray crystal structure [6]: TRUE; Binding site [7]: Adenosine
